Test results reported in PubChem BioAssay (NCI).
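48-hour exposure; five concentrations; linearly interpolated endpoints. At the GI50, growth is halved. TGI marks complete inhibition of growth.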

Tests used:
Assay in all cases: DTP human tumour cell line panel, 48 h
HL-60(TB) leukemia = system: HL-60(TB) leukemia
SNB-75 CNS = system: SNB-75 CNS
RXF 393 renal = system: RXF 393 renal
MOLT-4 leukemia = system: MOLT-4 leukemia
NCI-H23 lung = system: NCI-H23 lung
SF-539 CNS = system: SF-539 CNS
SR leukemia = system: SR leukemia
UO-31 renal = system: UO-31 renal
DU-145 prostate = system: DU-145 prostate
RPMI-8226 leukemia = system: RPMI-8226 leukemia

Compound | TGI (HL-60(TB) leukemia) | GI50 (SNB-75 CNS) | TGI (SNB-75 CNS) | GI50 (RXF 393 renal) | TGI (RXF 393 renal) | GI50 (MOLT-4 leukemia) | TGI (MOLT-4 leukemia) | GI50 (NCI-H23 lung) | TGI (NCI-H23 lung) | GI50 (SF-539 CNS) | TGI (SF-539 CNS) | GI50 (SR leukemia) | TGI (SR leukemia) | GI50 (UO-31 renal) | TGI (UO-31 renal) | GI50 (DU-145 prostate) | TGI (DU-145 prostate) | GI50 (RPMI-8226 leukemia) | TGI (RPMI-8226 leukemia) | GI50 (HL-60(TB) leukemia)
CSC1=Nc2c(c(C)c(C)n2COC(CO)CO)C2=NC(=O)C(C)N12 (centres undefined) | > 100 µM | 26.3 µM | > 100 µM | > 100 µM | > 100 µM | > 100 µM | > 100 µM | > 100 µM | > 100 µM | > 100 µM | > 100 µM | 2.48 µM | > 100 µM | > 100 µM | > 100 µM | > 100 µM | > 100 µM | > 100 µM | > 100 µM | –
Cc1cc(C)c2c(n1)sc1c(Nc3ccc(Cl)cc3)ncnc12 | – | 0.017 µM | > 26.4 µM | 0.0195 µM | 0.0898 µM | < 0.01 µM | > 100 µM | < 0.01 µM | > 100 µM | < 0.01 µM | 0.0882 µM | < 0.01 µM | 38.6 µM | < 0.01 µM | – | < 0.01 µM | > 100 µM | 0.0197 µM | > 100 µM | < 0.01 µM
CC(=O)Nc1ccc(S(=O)(=O)N2C(=O)CCC2C(=O)Nc2ccc(Br)cc2)cc1 (centres undefined) | 19 µM | 1.81 µM | 6.24 µM | 2.31 µM | 6.28 µM | 2.2 µM | 10.3 µM | 1.83 µM | 16.6 µM | 2.45 µM | 6.78 µM | 1.41 µM | 5.38 µM | 1.38 µM | 8.21 µM | 3.25 µM | 15.8 µM | 0.806 µM | 4.46 µM | 3.1 µM
CCCCC#CC1=C(Br)C(=O)OC1 | > 100 µM | 15.6 µM | > 100 µM | 1.89 µM | 4.57 µM | 0.319 µM | > 100 µM | 1.5 µM | 9.23 µM | 2.52 µM | 14.4 µM | 0.36 µM | > 100 µM | 1.37 µM | 3.1 µM | 0.752 µM | 2.34 µM | 0.32 µM | 2.72 µM | 0.249 µM
CCN1CCN(C(=O)[C@@]2(C)CC[C@]3(C)CC[C@]4(C)C(=CC(=O)[C@@H]5[C@@]6(C)CC[C@H](OC7C[C@@H](O)[C@@H](O)C(C)O7)C(C)(C)[C@@H]6CC[C@]54C)[C@@H]3C2)CC1 (some centres undefined) | 1.91 µM | 6.39 µM | 12.8 µM | 3.73 µM | 11.5 µM | 1.18 µM | 3 µM | 2.36 µM | 9.57 µM | 0.937 µM | 1.85 µM | 1.06 µM | 2.57 µM | 0.757 µM | 1.53 µM | 8.71 µM | 16.3 µM | 1.09 µM | 2.52 µM | 0.939 µM
O=C(O)c1nnsc1-c1ccc(-c2snnc2C(=O)O)cc1 | > 100 µM | – | > 100 µM | – | > 100 µM | – | 51.4 µM | – | > 100 µM | – | 69.7 µM | – | > 100 µM | – | > 100 µM | – | > 100 µM | – | 68.6 µM | –
COc1ccccc1/C=N\N/C(N)=N\N=C\c1ccccc1OC | 0.558 µM | 0.149 µM | > 48.5 µM | 0.265 µM | > 100 µM | 0.355 µM | 3.9 µM | 0.618 µM | > 31.2 µM | 0.264 µM | 1.02 µM | 0.0319 µM | 0.74 µM | 2.31 µM | > 23.1 µM | 0.386 µM | 2.73 µM | 0.281 µM | 0.806 µM | 0.215 µM
CCOC(=O)C(C#N)C1=CC(=O)C(=O)c2ccc(OC)cc21 (centres undefined) | > 100 µM | – | 58.5 µM | – | 47.5 µM | – | > 100 µM | – | 30.6 µM | – | 33.5 µM | – | > 100 µM | – | 32 µM | – | 38.2 µM | – | > 100 µM | –
CCOC(=O)c1ccc(NC(=O)Oc2ccc3c(C)cc(=O)oc3c2)cc1 | 62.2 µM | – | 98.1 µM | – | > 100 µM | – | 58 µM | – | > 100 µM | – | > 100 µM | – | 54.2 µM | – | > 100 µM | – | > 100 µM | – | 72.9 µM | –
Cc1cc(Cl)cc(OCCn2cc(F)cn2)c1-c1nc(N)nc2c1CN(C(=O)NCC(C)(F)F)C2 | > 100 µM | – | > 100 µM | – | > 100 µM | 0.112 µM | > 100 µM | 0.273 µM | > 100 µM | 0.181 µM | > 100 µM | 0.0495 µM | > 100 µM | 0.682 µM | > 100 µM | 0.0652 µM | > 100 µM | – | > 100 µM | 0.0407 µM
CO/N=C(\C(=O)OC(=NC1CCCCC1)NC1CCCCC1)c1csc(NC(c2ccccc2)(c2ccccc2)c2ccccc2)n1 | > 10 µM | – | > 10 µM | – | > 10 µM | – | > 10 µM | – | > 10 µM | – | > 10 µM | – | > 10 µM | – | > 10 µM | – | > 10 µM | – | > 10 µM | –
CCOC(=O)C1=CN(C)C=C(C(=O)OCC)C1c1cc(Br)c(OCC)c(OC)c1 | > 100 µM | 20.8 µM | > 100 µM | 8.74 µM | > 100 µM | > 100 µM | > 100 µM | > 100 µM | > 100 µM | > 100 µM | > 100 µM | > 100 µM | > 100 µM | 39.9 µM | > 100 µM | > 100 µM | > 100 µM | 25.8 µM | > 100 µM | > 100 µM
COc1ccc(OC)c2c1[nH]c(=O)c1c3ccccc3cn21 | 4.24 µM | 1.44 µM | 2.83 µM | 1.5 µM | 3.01 µM | 0.581 µM | 2.3 µM | 1.49 µM | 3.04 µM | 1.69 µM | 3.08 µM | 0.189 µM | 2.36 µM | 1.11 µM | 2.38 µM | 1.51 µM | 3.03 µM | 1.07 µM | 3.21 µM | 1.7 µM
C/C=C(\C)C(=O)O[C@H]1C=CC(=O)O[C@H]1CCC(=O)[C@H](C)O | 24.8 µM | 20.4 µM | 41.4 µM | 7.08 µM | 28.5 µM | 17.6 µM | 41.8 µM | 20.5 µM | 43.9 µM | 19.2 µM | 35.8 µM | 2.22 µM | 13.2 µM | 15.9 µM | 31.2 µM | 16.9 µM | 33.1 µM | 8.88 µM | 34 µM | 7.34 µM
NC(=O)/C=C/C(=O)c1c(Cl)cccc1Cl | 4.05 µM | 1.61 µM | 2.96 µM | 0.601 µM | 1.4 µM | 1.18 µM | 5.46 µM | 1.53 µM | 3.01 µM | 1.41 µM | 2.71 µM | 0.224 µM | 1.37 µM | 0.429 µM | 0.859 µM | 1.65 µM | 3.04 µM | 0.264 µM | 1.14 µM | 0.679 µM
